Test results from patent US20240287065A1, “COMPOUND AS CDK KINASE INHIBITOR AND USE THEREOF” (TYK MEDICINES (ZHENGZHOU) , INC., priority 2021, published 2024).
Where two headings read alike, the source gives them in different places.

Assays:
HCC1806 cells = experiment: Cell proliferation inhibition assay (MTT, 7 days); assay type: cell-based; conditions: HCC1086 [sic], 7 days incubation
Procedure: (§1) MCF7, T47D, OVCAR3 and HCC1806 cells were inoculated in 96-well plates at 3000, 3000, 2500, and 2000 cells/well, respectively, and cultured overnight at 37° C., 5% C02 incubator.
(§2) 1. […] Then 2.5 μl of the stock solution was dissolved in 497.5 μl of DMSO-free medium, and then a 3-fold serial gradient dilution was performed with 0.1% DMSO medium for a total of 9 concentrations, and the concentrations of the compounds after dilution were as follows: • 10000 nM, 3333.33 nM, 1111.11 nM, 370.34 nM, 123.45 nM, 41.15 nM, 13.72 nM, 4.57 nM, and 1.52 nM. • b) After fully mixing, 20 μL of compound solutions were added into cell culture plates containing 80 μL of cells respectively, with 4 replicate wells for each concentration. • c) The cells were transferred to an incubator and incubated for 7 days, and exchanged with fresh culture medium containing the same concentration of compounds when incubated to day 4. 2. MTT assay • a) The cell culture plate was taken out and 10 μL of 5 mg/ml MTT was added to the hood. • b) The cell culture plate was put back into the incubator and continued to incubate for 3 hours. • c) The cell culture plate was taken out to remove the culture medium, and 100 μL of isopropanol (0.4 mMHCl, 0.4% NP40) was added to the plate, and the plate was shaken on a shaker at room temperature for 30 minutes and read at 570 nm. 3. Data analysis
(§3) The survival rate (% Cell Survival) was calculated using the following equation:
(§4) % Cell Survival=100%×(OD_Sample−OD_LCave)/(OD_HC−OD_LCave) • OD_HC: 0.1‰ cell readings of DMSO control • OD_Sample: cell readings of compound addition • OD_LC: readings of blank medium • Analyed by Prizm: Dose-response-Inhibition Log(inhibitor) vs response (three parameters for the best fit)
(§5) IC50 (nM) values were calculated by concentration-response curve fitting.

OVCAR3 cells = experiment: Cell proliferation inhibition assay (MTT, 7 days); assay type: cell-based; conditions: 7 days incubation
Procedure: as §1, §2, §3, §4, §5

MCF7 cells = experiment: Cell proliferation inhibition assay (MTT, 7 days); assay type: cell-based; conditions: 7 days incubation
Procedure: as §1, §2, §3, §4, §5

T47D cells = experiment: Cell proliferation inhibition assay (MTT, 7 days); assay type: cell-based; conditions: 7 days incubation
Procedure: as §1, §2, §3, §4, §5

CDK4/CycD3 = CDK4/CycD3 (Homo sapiens, UniProt P11802); experiment: Enzyme activity test; assay type: biochemical;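 also: values come from the source column headed CDK4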
Chain of CDK4/CycD3 (P11802 whole entry, species assumed): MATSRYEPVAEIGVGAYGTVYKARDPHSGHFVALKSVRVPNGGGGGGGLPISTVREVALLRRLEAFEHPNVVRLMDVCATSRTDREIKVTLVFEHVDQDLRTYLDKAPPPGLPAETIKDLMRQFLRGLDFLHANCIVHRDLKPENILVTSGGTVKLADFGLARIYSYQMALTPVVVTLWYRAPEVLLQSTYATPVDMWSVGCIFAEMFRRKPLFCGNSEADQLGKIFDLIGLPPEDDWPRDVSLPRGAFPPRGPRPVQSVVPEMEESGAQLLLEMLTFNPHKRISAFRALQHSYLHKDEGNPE
Chain of CDK4/CycD3 (P30281 whole entry partner, species assumed): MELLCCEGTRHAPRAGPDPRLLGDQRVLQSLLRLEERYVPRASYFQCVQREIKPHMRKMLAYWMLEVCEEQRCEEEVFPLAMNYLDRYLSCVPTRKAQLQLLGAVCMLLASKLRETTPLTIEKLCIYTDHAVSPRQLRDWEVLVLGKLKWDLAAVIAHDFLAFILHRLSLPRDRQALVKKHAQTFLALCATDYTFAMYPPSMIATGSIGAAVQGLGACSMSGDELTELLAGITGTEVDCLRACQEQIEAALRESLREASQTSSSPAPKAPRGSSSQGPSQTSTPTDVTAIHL
Procedure: (§6) • 1. The test compounds and pabocinib were configured into a […] solution of DMSO; • 2. 20 nL of stock solution was transferred to a 384-well plate using Echo550. DMSO was used as a blank control.
(§7) • 1. according to the following table to prepare 1.3X enzyme solution containing enzyme, substrate and cofactor; • 2. 15 μL of 1.3X enzyme solution was added to each well and the mixture was incubated for 30 min at room temperature; • 3. 5 μL of ATP solution was added to initiate the reaction. The final volume of each well was 20 μL; • 4. After incubation for 150 min at room temperature, 75 μL of termination buffer solution was added to terminate the experiment; • 5. The samples were analyzed using EZ reader.
(§8) The % inhibition was calculated using the following equation
(§9) The one treated with DMSO is the positive control (PC)
(§10) The one without enzyme is the negative control (NC)
(§11) % Inhibition=100-100*((CRPC−CRsample)/(CRPC−CRNC))

CDK2/CycE1 = CDK2/CycE1 (Homo sapiens, UniProt P24941); experiment: Enzyme activity test; assay type: biochemical;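 also: values come from the source column headed CDK2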
Procedure: as §6, §7, §8, §9, §10, §11

CDK6/CycD1 = CDK6/CycD1 (Homo sapiens, UniProt Q00534); experiment: Enzyme activity test; assay type: biochemical;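 also: values come from the source column headed CDK6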
Chain of CDK6/CycD1 (Q00534 whole entry, species assumed): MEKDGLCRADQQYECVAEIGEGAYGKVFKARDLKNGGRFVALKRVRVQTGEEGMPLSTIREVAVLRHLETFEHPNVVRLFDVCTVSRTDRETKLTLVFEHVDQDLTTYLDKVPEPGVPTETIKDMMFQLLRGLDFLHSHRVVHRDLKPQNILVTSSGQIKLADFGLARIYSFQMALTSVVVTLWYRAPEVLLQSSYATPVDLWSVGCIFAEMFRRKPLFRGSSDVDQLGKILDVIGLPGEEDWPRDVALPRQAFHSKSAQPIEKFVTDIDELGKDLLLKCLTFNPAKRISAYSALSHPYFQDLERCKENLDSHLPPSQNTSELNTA
Chain of CDK6/CycD1 (P24385 whole entry partner, species assumed): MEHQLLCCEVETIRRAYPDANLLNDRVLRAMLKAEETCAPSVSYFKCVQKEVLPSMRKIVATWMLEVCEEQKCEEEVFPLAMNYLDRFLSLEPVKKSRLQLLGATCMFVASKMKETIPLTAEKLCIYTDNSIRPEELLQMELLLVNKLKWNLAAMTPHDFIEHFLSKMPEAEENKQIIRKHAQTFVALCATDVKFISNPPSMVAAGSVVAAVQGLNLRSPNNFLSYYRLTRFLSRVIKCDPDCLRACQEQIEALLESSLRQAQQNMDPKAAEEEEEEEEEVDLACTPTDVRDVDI
Procedure: as §6, §7, §8, §9, §10, §11

MCF-7-Palbo-R cells = experiment: MCF-7-Palbo-R cell antiproliferative assay (BrdU ELISA); assay type: cell-based; conditions: for IC50: 72 hours, BrdU; for Bottom(%): bottom of inhibition curve; for Top(%): top of inhibition curve
Procedure: 1. Experimental Materials • MCF-7/palbo-R • EMEM medium (ATCC, 30-2003); DMEM/F12 medium (Gibco-1 1330-032) • Fetal bovine serum (cellmax-SA21 1.02) • DMSO (SIGMA, D2650) • BrdU ELISA cell proliferation assay kit (Roche, 11647229001) • ELISA (e.g. MD-SpectraMax ID5 or EnVision)
2. Experimental protocol • 1. Cell spreading • 1) Cells were counted, the concentration of cell suspension was adjusted • 2) The MCF7/Palbo-R cell suspension was seeded in 96-well plates at […] volume to make the number of cells per well is 4000-5000; • 3) Blank control group was added with 90 μl of culture medium; • 2. […] A 3-fold serial gradient dilution was performed with 0.1% DMSO medium for a total of 9 concentrations, and the concentrations of the compounds after dilution were as follows: • 10000 nM, 3333.33 nM, 1111.11 nM, 370.34 nM, 123.45 nM, 41.15 nM, 13.72 nM, 4.57 nM, and 1.52 nM. • b) After 72 hours of compound treatment. • 1) A 10 mM of Brdu stock solution was diluted with RPMI medium and added to a 96-well plate at 20 uL/well and shaken at 350 rpm for 10 minutes. • 2) The 96 well plate was placed back into the incubator for 1 or 2 hours. • 3) After the medium was removed from the 96-well plate, 200 ul/well of Fixation/Denaturation solution was added and incubated for 30 minutes at room temperature. • 4) The fixation solution was removed and 100 ul of peroxidase-coupled anti-Brdu antibody solution (antibody dilution prepared at 1:100 dilution) was added, • and incubated at 350 rpm for 1 hour at room temperature. • 6) The 96-well plate was washed three times with 300 ul/well of PBS. • 8) 100ul of peroxidase substrate solution was added and shaken at 350 rpm for about 10-20 minutes at room temperature, • until the DMSO-treated cell control wells turn a medium blue color. If a color is too dark, it will cause the absorbance value to out of the reading range. • 9) The reaction was terminated by the addition of 25 ul of 1 M sulfuric acid. Shake to ensure uniform color. • 10) The absorbance at 450 nm was recorded. • 3. Data analysis • The inhibition rate is calculated using the following equation:
IR (%)=(1−(RLU compound−RLU blank)/(RLU control−RLU blank))*100%.

xMCF-7/Palbo-R cells = experiment: xMCF-7/Palbo-R xenograft tumor model; assay type: in vivo; conditions: 20 mg/kg, oral tube feeding twice daily for 20 days, Balb/c nude female mice
Procedure: To establish a xenograft tumor model, 1×10^7 xMCF-7/Palbo-R cells were suspended in 0.2 mL of a mixture of Matrigel and […] (1:1) and injected subcutaneously into 6-8 week-old Balb/c nube female mice. Tumor growth was observed periodically, and the volume (volume=½×(length×width 2)) was measured with a vernier caliper. When the tumors grew to an average volume of 100˜150 mm3, the drug was administered to mice (12 days after inoculation) in random groups according to the tumor size and their body weights. […] The drugs were administered by oral tube feeding twice daily for 20 days. Tumor volume and animal weight were measured twice a week and continued until the end of the experiment. Dosing day was defined as day 0. Measurement time points were day 0, day 3, day 7, day 10, day 14, day 17 and day 20. All mice were euthanized by cervical dislocation. At the end of the experiment, tumors were collected and weighed to calculate TGI values (see Table 4).

OVCAR-3 cells = experiment: OVCAR-3 xenograft tumor model; assay type: in vivo; conditions: BALB/c nude female mice
Procedure: OVCAR-3 cells were cultured in RPMI1640 culture medium containing 20% fetal bovine serum and 10 μg/mL Insalin. Cells in the exponential growth phase were collected, and the cells were resuspended in the mixed solution of PBS and Matrigel in a ratio of 1:1 to a suitable concentration for subcutaneous tumor inoculation in nude mice.
To establish a xenograft tumor model, 1×10^7 OVCAR-3 cells were suspended in 0.2 mL of a mixture of PBS and Matrigel (1:1) and injected subcutaneously into 6-8-week-old BALB/c nube female mice on the right back. Tumor growth was observed periodically, and the volume (volume=½[…](length×width 2)) was measured with a vernier caliper. When the tumors grew to an average volume of 100˜150 mm^3, the drug was administered to mice (27 days after inoculation) in random groups according to the tumor size and their body weights. […] Tumor volume and animal weight were measured twice a week and continued until the end of the experiment. Dosing day was defined as day 0. Measurement time points were day 0, day 3, day 7, day 10, day 14, day 17 and day 21. All mice were euthanized by cervical dislocation. At the end of the experiment, tumors were collected and weighed to calculate TGI values (see Table 5).

MV4-11 cells = experiment: MV4-11 xenograft tumor model; assay type: in vivo; conditions: 20 mg/kg, oral tube feeding once a day for 15 days, NOD/SCID mice
Procedure: MV-4-11 cells were cultured in IMEM culture medium containing 10% fetal bovine serum. Cells in the exponential growth phase were collected, and the cells were resuspended in PBS to a suitable concentration for subcutaneous tumor inoculation in nude mice.
To establish a xenograft tumor model, 5×10^6 MV4-11 cells were suspended in 0.1 mL of a 1:1 mixture of PBS and Matrigel and injected subcutaneously into the right dorsal side of 6-8-week-old NOD/SCID mice. Tumor growth was observed periodically, and the volume (volume=½×(length×width^2)) was measured with a vernier caliper. When the tumors grew to an average volume of 100˜150 mm^3, the drug was administered to mice (12 days after inoculation) in random groups according to the tumor size and their body weights. […] Among them, the mice in the Vehicle, 10 mg/kg TY-3301, 10 mg/kg C3, and 20 mg/kg C3 groups were administered twice a day by oral tube feeding for 15 days, and the mice in the 20 mg/kg TY-3300 group were administered once a day by oral tube feeding for 15 days. Tumor volume and animal weight were measured twice a week and continued until the end of the experiment. Dosing day was defined as day 0. Measurement time points were day 0, day 3, day 7, day 10, day 14, and day 15. All mice were euthanized by cervical dislocation. At the end of the experiment, tumors were collected and weighed to calculate TGI values (see Table 6).

| IC50 (HCC1806 cells; Homo sapiens, HCC1806, 168 h) [nM] | IC50 (OVCAR3 cells; Homo sapiens, OVCAR-3, 168 h) [nM] | IC50 (MCF7 cells; Homo sapiens, 168 h) [nM] | IC50 (T47D cells; Homo sapiens, 168 h) [nM] | IC50 (CDK4/CycD3) [nM] | IC50 (CDK2/CycE1) [nM] | IC50 (CDK6/CycD1) [nM] | IC50 (MCF-7-Palbo-R cells; read-out: AbsIC50) [nM] | IC50 (MCF-7-Palbo-R cells; read-out: ReIC50) [nM] | IC50 (HCC1806 cells) [nM] | IC50 (OVCAR3 cells) [nM] | IC50 (MCF7 cells) [nM] | IC50 (T47D cells) [nM] | Molecule | Bottom(%) (MCF-7-Palbo-R cells) | Top(%) (MCF-7-Palbo-R cells) | TGI (xMCF-7/Palbo-R cells) [%] | TGI (OVCAR-3 cells; 30 mg/kg, oral tube feeding twice daily for 21 days) [%] | TGI (OVCAR-3 cells; 50 mg/kg, oral tube feeding twice daily for 21 days) [%] | TGI (OVCAR-3 cells; 60 mg/kg, oral tube feeding once daily for 21 days) [%] | TGI (MV4-11 cells) [%] |
| --- | --- | --- | --- | --- | --- | --- | --- | --- | --- | --- | --- | --- | --- | --- | --- | --- | --- | --- | --- | --- |
| ≤ 50 | ≤ 50 | 50 to 5200 | ≤ 50 | < 10 | < 10 | < 10 | 26 | 26 | – | – | – | – | C[C@@]1(O)CCC[C@H]1n1c(=O)c(OC(F)F)cc2cnc(NC3CCN(S(=O)(=O)c4ccc(F)cc4)CC3)nc21 [Example 12] | 7.117 | 99.196 | – | – | – | – | – |
| ≤ 50 | ≤ 50 | ≤ 50 | ≤ 50 | < 10 | < 10 | < 10 | – | – | – | – | – | – | C[C@@]1(O)CCC[C@H]1n1c(=O)c(OC(F)F)cc2cnc(NC3CCN(S(=O)(=O)c4ccccn4)CC3)nc21 [Example 27] | – | – | 61.5 | – | – | – | – |
| ≤ 50 | ≤ 50 | ≤ 50 | 50 to 5200 | < 10 | < 10 | < 10 | – | – | – | – | – | – | [2H]C1(Nc2ncc3cc(OC(F)F)c(=O)n([C@@H]4CCC[C@@]4(C)O)c3n2)CCN(S(C)(=O)=O)CC1 [Example 29] | – | – | – | 69 | 74.8 | – | – |
| – | – | – | – | – | – | – | 4010 | 7090 | > 1000 | > 1000 | ≤ 50 | 50 to 5200 | Palbociclib [reference compound] | −3.542 | 68.840 | – | – | – | 27.7 | 39 |
